{"source": "paper PMC5468247", "about": "“Development of a selective agonist for relaxin family peptide receptor 3” (Scientific Reports, 2017)", "key": {"human RXFP4 [1]": {"molecular_target": "T1, human RXFP4 (Homo sapiens, UniProt Q8TDU9)", "T1 construct": "expressed in transfected cells; host or cells: HEK293T", "T1 sequence (Q8TDU9 whole entry)": "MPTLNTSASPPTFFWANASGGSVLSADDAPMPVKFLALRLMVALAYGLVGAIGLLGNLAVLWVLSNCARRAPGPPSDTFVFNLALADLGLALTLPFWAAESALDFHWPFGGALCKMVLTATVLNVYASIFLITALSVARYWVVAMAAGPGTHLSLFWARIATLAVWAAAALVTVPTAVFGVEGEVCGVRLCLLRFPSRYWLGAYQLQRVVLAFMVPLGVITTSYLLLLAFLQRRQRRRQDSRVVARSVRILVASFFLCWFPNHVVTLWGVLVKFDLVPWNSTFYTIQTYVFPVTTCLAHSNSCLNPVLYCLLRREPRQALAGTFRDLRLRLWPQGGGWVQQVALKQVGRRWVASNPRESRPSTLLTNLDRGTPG", "experiment": "Receptor binding assay, NanoLuc-conjugated R3/I5 tracer competition", "details": "relative to R3/I5"}, "human RXFP3 [2]": {"molecular_target": "T2, human RXFP3 (Homo sapiens, UniProt Q9NSD7)", "T2 construct": "expressed in transfected cells; host or cells: HEK293T", "T2 sequence (Q9NSD7 1-469)": "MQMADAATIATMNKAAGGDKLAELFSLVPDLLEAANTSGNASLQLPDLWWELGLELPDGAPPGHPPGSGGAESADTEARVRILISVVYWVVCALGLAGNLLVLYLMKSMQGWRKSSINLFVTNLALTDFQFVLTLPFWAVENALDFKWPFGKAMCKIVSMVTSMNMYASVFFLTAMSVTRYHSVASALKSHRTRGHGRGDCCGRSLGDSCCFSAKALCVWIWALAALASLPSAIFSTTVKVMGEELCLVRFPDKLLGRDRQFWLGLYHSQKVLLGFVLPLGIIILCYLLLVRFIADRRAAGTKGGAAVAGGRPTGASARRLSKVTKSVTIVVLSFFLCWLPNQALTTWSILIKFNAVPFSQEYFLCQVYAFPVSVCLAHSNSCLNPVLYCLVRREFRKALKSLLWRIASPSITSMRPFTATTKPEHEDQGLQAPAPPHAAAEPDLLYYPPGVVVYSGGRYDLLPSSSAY", "experiment": "Receptor binding assay, NanoLuc-conjugated R3/I5 tracer competition", "details": "relative to R3/I5"}, "human RXFP4 [3]": {"molecular_target": "T1, human RXFP4", "experiment": "Receptor activation assay, CRE-controlled NanoLuc reporter", "assay_type": "cell-based", "details": "relative to R3/I5"}, "human RXFP3 [4]": {"molecular_target": "T2, human RXFP3", "experiment": "Receptor activation assay, CRE-controlled NanoLuc reporter", "assay_type": "cell-based", "details": "CRE-NanoLuc reporter, human RXFP3; compared with R3/I5"}}}
{"smiles": "CC[C@H](C)[C@@H]1NC(=O)[C@H](Cc2ccccc2)NC(=O)[C@H](CCC(=O)O)NC(=O)[C@H](CCCNC(=N)N)NC(=O)CNC(=O)[C@@H](NC(=O)[C@H](CC(C)C)NC(=O)[C@H](CCCNC(=N)N)NC(=O)[C@@H](NC(=O)CNC(=O)[C@H](Cc2ccc(O)cc2)NC(=O)[C@@H]2CCCN2C(=O)[C@H](C)NC(=O)[C@H](C)NC(=O)[C@H](CCCNC(=N)N)NC(=O)[C@@H]2CCC(=O)N2)C(C)C)CSSC[C@@H]2NC(=O)[C@@H](NC(=O)[C@H](CC(C)C)NC(=O)[C@@H](NC(=O)[C@H](CCC(N)=O)NC(=O)[C@H](CC(C)C)NC(=O)[C@H](CC(=O)O)NC(=O)[C@H](CCC(N)=O)NC(=O)[C@H](CCCNC(=N)N)NC(=O)[C@H](CO)NC(=O)[C@H](CCCNC(=N)N)NC(=O)[C@H](CCCNC(=N)N)NC(=O)[C@H](CO)NC(=O)[C@@H](N)CCCNC(=N)N)[C@@H](C)O)CSSC[C@H](NC(=O)CNC(=O)[C@H](CC(=O)O)NC(=O)[C@H]([C@@H](C)O)NC2=O)C(=O)N[C@@H](CO)C(=O)N[C@@H](CCSC)C(=O)N[C@@H]([C@@H](C)O)C(=O)N[C@@H](CC(=O)O)C(=O)N[C@@H](CC(C)C)C(=O)N[C@@H](CO)C(=O)N[C@@H](C)C(=O)N[C@@H](CC(C)C)C(=O)N[C@H](C(=O)O)CSSC[C@@H](C(=O)N[C@@H](CO)C(=O)N[C@@H](CCCNC(=N)N)C(=O)N[C@@H](Cc2c[nH]c3ccccc23)C(=O)O)NC(=O)[C@H]([C@@H](C)O)NC(=O)[C@H](Cc2ccccc2)NC(=O)[C@H]([C@@H](C)CC)NC(=O)[C@H](C(C)C)NC(=O)[C@H](C)NC(=O)[C@H](CCCNC(=N)N)NC1=O", "note": "[[∆B23-24]R3/I5]", "values": [{"measurement": "fold lower binding potency towards RXFP4 compared with R3/I5", "setting": "human RXFP4 [1]", "value": "~ 10 fold"}, {"measurement": "fold lower binding potency for RXFP3 compared with R3/I5", "setting": "human RXFP3 [2]", "value": "~ 3 fold"}, {"measurement": "fold lower activation potency towards RXFP4 compared with R3/I5", "setting": "human RXFP4 [3]", "value": "~ 1000 fold"}, {"measurement": "activation potency towards RXFP3, in words", "setting": "human RXFP3 [4]", "value": "lost all activation potency"}]}
